# Test results: ChEMBL document CHEMBL5150060 (J Med Chem, 2022)
# Activity calls are given as the source filed them. The rule behind the calls is not given here.
# Key:
# Histone deacetylase 1 = Histone deacetylase 1 (Homo sapiens, UniProt Q13547); test: Inhibition of recombinant human HDAC1 using p53 (Ac-RHKK(Acetyl)-AMC) as substrate preincubated for 5 mins followed by substrate addition and measured after 90 mins by fluorescence based analysis
# Histone deacetylase 8 = biological target: T1, Histone deacetylase 8 (Homo sapiens, UniProt Q9BY41); test: Competitive inhibition of human HDAC8 using Abz-SRGGK(STFA)FFRR-NH2 (S) as substrate by Lineweaver-burk plot analysis
# T1 sequence (Q9BY41 whole entry): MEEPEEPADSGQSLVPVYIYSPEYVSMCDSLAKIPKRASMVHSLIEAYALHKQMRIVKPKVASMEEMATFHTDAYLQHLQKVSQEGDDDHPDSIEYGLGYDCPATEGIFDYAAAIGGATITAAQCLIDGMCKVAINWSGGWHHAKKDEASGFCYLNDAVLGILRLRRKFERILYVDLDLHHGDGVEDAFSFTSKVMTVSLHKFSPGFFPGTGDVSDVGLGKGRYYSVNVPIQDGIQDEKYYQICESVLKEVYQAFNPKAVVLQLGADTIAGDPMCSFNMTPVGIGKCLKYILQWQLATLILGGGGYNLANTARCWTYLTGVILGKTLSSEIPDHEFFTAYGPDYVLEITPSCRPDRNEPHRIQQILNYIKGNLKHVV
# [1] = biological target: T2, Histone deacetylase 8 (Homo sapiens) (UniProt Q9BY41); test: Reversible binding affinity to recombinant human HDAC8 incubated for 30 mins by jump dilution method
# T2 sequence (whole entry): T1 sequence (Q9BY41 whole entry)
# [2] = Stability of compound in DMEM/DMSO/acetonitrile at pH 7.4 measured after 6 hrs by HPLC analysis; type: physicochemical; details: read-out: Stability
# [3] = Stability of compound in DMEM/DMSO/acetonitrile at pH 7.4 measured after 12 hrs by HPLC analysis; type: physicochemical; details: read-out: Stability
# [4] = Stability of compound in DMEM/DMSO/acetonitrile at pH 7.4 measured after 24 hrs by HPLC analysis; type: physicochemical; details: read-out: Stability
# HEK293 = test: Cytotoxicity against HEK293 cells assessed as reduction in cell viability at 50 uM after 24 hrs by alamar blue assay; type: toxicity, cell-based; details: human, hek293, 24 h
# [5] = biological target: T2, Histone deacetylase 8 (Homo sapiens); test: Inhibition of HDAC8 in human Jurkat T cells assessed as upregulation of EOMES expression at 10 uM after 6 to 12 hrs by RT-qPCR analysis; type: cell-based; details: time 6-12 hrs
# [6] = biological target: T2, Histone deacetylase 8 (Homo sapiens); test: Inhibition of HDAC8 in human Jurkat T cells assessed as upregulation of BCL6 expression after 6 hrs by RT-qPCR analysis; type: cell-based; details: dose 0.1-10 µM, DDE = dose-dependent effect
# [7] = biological target: T2, Histone deacetylase 8 (Homo sapiens); test: Inhibition of HDAC8 in human Jurkat T cells assessed as upregulation of IL15 expression after 6 hrs by RT-qPCR analysis; type: cell-based; details: dose 0.1-10 µM, DDE = dose-dependent effect
# [8] = biological target: T2, Histone deacetylase 8 (Homo sapiens); test: Inhibition of HDAC8 in human Jurkat T cells assessed as upregulation of KLRG1 expression after 6 hrs by RT-qPCR analysis; type: cell-based; details: dose 0.1-10 µM, DDE = dose-dependent effect
# [9] = biological target: T2, Histone deacetylase 8 (Homo sapiens); test: Inhibition of HDAC8 in human Jurkat T cells assessed as upregulation of PRDM1 expression after 6 hrs by RT-qPCR analysis; type: cell-based; details: dose 0.1-10 µM, DDE = dose-dependent effect
# [10] = biological target: T3, Protein deacetylase HDAC6 (Mus musculus) (UniProt Q9Z2V5); test: Inhibition of HDAC6 in mouse spleen CD4+ T- lymphocytes assessed as increase in H3K27 acetylation level at 5 to 10 uM after 6 hrs by Western blot analysis; type: cell-based; details: CD4+ve Th, dose 5-10 µM
# T3 sequence (whole entry): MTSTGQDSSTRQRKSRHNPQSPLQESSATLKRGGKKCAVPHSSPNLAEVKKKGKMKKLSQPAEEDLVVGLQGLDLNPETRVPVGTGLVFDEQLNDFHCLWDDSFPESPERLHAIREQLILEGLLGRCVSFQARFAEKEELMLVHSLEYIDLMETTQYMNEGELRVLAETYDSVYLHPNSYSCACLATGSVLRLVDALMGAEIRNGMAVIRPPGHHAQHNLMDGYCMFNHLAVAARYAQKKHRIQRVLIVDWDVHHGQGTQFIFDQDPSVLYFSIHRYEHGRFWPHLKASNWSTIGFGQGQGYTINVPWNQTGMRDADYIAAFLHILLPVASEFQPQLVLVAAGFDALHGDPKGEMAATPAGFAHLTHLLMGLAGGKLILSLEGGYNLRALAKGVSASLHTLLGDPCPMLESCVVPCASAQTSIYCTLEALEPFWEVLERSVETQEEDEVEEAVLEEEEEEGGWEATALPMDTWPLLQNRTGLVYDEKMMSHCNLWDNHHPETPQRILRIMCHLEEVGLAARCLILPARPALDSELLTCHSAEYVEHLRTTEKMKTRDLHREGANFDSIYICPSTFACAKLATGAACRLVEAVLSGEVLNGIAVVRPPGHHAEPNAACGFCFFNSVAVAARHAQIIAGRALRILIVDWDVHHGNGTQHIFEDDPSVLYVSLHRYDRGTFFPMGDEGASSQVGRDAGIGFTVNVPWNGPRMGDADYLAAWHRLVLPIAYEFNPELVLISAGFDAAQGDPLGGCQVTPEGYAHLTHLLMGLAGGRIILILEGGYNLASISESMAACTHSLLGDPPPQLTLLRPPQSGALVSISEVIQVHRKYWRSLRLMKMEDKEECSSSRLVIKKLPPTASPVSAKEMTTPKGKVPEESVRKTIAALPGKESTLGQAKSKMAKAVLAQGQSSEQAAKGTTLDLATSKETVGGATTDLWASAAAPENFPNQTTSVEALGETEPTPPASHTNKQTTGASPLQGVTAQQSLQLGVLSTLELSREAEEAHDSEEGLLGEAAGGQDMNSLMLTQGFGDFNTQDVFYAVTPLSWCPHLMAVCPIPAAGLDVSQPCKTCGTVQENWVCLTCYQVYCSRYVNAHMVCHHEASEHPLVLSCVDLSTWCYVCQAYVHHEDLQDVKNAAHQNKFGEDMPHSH
# [11] = biological target: T3, Protein deacetylase HDAC6 (Mus musculus); test: Inhibition of HDAC6 in mouse spleen CD4+ T- lymphocytes assessed as increase in SMC3 acetylation level at 5 to 10 uM after 6 hrs by Western blot analysis; type: cell-based; details: CD4+ve Th, dose 5-10 µM
# [12] = Toxicity in C57BL/6 mouse assessed as change in body weight at 5 to 10 mg/kg, ip administered 5 days per week for 2 weeks; type: organism-based; details: in vivo, 336 h, dose 5-10 mg/kg
# [13] = Toxicity in C57BL/6 mouse assessed as change in heart weight at 5 to 10 mg/kg, ip administered 5 days per week for 2 weeks by H and E staining based assay; type: organism-based; details: in vivo, 336 h, dose 5-10 mg/kg
# [14] = Toxicity in C57BL/6 mouse assessed as change in intestine weight at 5 to 10 mg/kg, ip administered 5 days per week for 2 weeks by H and E staining based assay; type: organism-based; details: in vivo, 336 h, dose 5-10 mg/kg
# [15] = Toxicity in C57BL/6 mouse assessed as change in kidney weight at 5 to 10 mg/kg, ip administered 5 days per week for 2 weeks by H and E staining based assay; type: organism-based; details: in vivo, 336 h, dose 5-10 mg/kg
# [16] = Toxicity in C57BL/6 mouse assessed as change in liver weight at 5 to 10 mg/kg, ip administered 5 days per week for 2 weeks by H and E staining based assay; type: organism-based; details: in vivo, 336 h, dose 5-10 mg/kg
# [17] = Toxicity in C57BL/6 mouse assessed as change in stomach weight at 5 to 10 mg/kg, ip administered 5 days per week for 2 weeks by H and E staining based assay; type: organism-based; details: in vivo, 336 h, dose 5-10 mg/kg
# Histone deacetylase 1, sequence (Q13547 whole entry): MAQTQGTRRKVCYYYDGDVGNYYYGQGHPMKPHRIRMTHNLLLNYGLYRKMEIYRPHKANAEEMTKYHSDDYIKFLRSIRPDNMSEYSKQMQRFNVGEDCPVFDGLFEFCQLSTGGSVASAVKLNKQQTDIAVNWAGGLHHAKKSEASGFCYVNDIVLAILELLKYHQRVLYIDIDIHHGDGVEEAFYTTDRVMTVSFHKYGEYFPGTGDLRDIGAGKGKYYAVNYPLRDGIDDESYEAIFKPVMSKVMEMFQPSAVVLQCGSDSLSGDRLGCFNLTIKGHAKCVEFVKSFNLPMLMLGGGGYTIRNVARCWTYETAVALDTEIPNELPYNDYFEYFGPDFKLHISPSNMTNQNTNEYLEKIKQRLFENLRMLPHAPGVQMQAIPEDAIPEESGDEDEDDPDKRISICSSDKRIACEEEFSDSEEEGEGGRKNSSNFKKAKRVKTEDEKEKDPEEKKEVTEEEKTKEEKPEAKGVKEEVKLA
smiles,measurement,setting,value
CCCCCCNNC(=O)c1ccc(-c2ccc(CNC(C)=O)cc2)cc1,IC50,Histone deacetylase 1,1800 nM
same,Ki,Histone deacetylase 8,30.6 nM
same,Activity,[1],Active
same,remaining at 6 h,[2],103%
same,remaining at 12 h,[3],104%
same,remaining at 24 h,[4],105%
same,Cell viability,HEK293,121.3%
same,inhibition,[5],Active
same,inhibition,[6],Dde
same,inhibition,[7],Dde
same,inhibition,[8],Dde
same,inhibition,[9],Dde
same,inhibition,[10],Active
same,inhibition,[11],Active
same,Activity,[12],Non-Toxic
same,Activity,[13],Non-Toxic
same,Activity,[14],Non-Toxic
same,Activity,[15],Non-Toxic
same,Activity,[16],Non-Toxic
same,Activity,[17],Non-Toxic
